Structures are written as SMILES.

For data set [1], the target named is T1, acylpeptide hydrolase (ACPH) (Rattus norvegicus, UniProt P13676).
T1 construct: 50 μl of brain homogenate and 100 μM N-acetyl-methionyl-aminomethyl-coumarin as the enzyme substrate; from tissue; host or cells: rat brain homogenate
T1 sequence (P13676 1-732): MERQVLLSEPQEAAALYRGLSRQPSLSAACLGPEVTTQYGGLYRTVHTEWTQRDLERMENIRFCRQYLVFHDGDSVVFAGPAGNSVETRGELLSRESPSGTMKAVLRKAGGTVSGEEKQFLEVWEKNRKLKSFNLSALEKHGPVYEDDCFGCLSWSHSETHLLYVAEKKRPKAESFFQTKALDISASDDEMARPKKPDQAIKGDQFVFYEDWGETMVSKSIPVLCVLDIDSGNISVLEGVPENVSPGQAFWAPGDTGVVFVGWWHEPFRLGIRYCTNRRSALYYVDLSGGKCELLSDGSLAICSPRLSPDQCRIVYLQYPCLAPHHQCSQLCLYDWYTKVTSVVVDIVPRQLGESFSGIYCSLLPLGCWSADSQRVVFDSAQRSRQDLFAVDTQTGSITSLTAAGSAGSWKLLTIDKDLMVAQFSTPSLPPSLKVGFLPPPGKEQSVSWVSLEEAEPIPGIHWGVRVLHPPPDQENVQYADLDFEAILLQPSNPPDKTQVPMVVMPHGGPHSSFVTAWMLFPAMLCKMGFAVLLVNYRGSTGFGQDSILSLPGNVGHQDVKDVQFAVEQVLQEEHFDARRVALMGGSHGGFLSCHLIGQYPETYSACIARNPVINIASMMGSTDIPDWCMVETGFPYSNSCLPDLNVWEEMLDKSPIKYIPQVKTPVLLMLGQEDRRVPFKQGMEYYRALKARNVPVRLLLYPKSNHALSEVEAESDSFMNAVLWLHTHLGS
The data set can be described thus: In vitro determination of the inhibition of ACPH. To be noted: rat brain homogenate; substrate 100 μM N-acetyl-methionyl-aminomethyl-coumarin; 30 min preincubation, 30 min reaction. It is filed as biochemical. How it is done:
In vitro determination of the Inhibition of ACPH
In the standard experiment, rat brains are homogenized in a 10-fold volume (w/v) of 50 mM tris HCl buffer, 1 mM EDTA, 100 mM NaCl, 0.1% BSA, 1 mM DDT, pH 7.2. The protein concentration of the homogenate is adjusted to approximately 5 mg/ml by dilution with buffer. The incubation batch (110 μl) contains 40 μl of buffer, various test concentrations of the test substances to be tested in 10 μl of buffer, 50 μl of brain homogenate and 100 μM N-acetyl-methionyl-aminomethyl-coumarin as the enzyme substrate. Before addition of the substrate, the reaction mixture is preincubated at room temperature for 30 min. The enzyme reaction is started by substrate addition. The reaction time is 30 min. Afterwards, the samples are activated in a fluorimeter at 390 nm and determined quantitatively at 460 nm. The IC50 value is calculated from the enzyme activity in the presence of increasing concentrations of test substance in the test. For the measurement of the ACPH activity, purified enzyme from liver or other organs can also be used and also homogenates of other organs having ACPH activity, such as liver or erythrocytes.

By melting point is commonly meant the temperature, or range, at which the solid turns liquid. With `CN(CCCl)C(=O)n1oc(=O)c2cc(Cl)ccc21`, the melting point amounted to 52 °C.
The compound `O=C(N1CCC1)n1oc(=O)c2ccccc21` [Example 2] yielded a melting point of 163 °C.
Still for that read-out and setting: the value for `O=C(N1CCCC1)n1oc(=O)c2ccccc21` [Example 3] was 99 °C.
Broadly, the IC50 is the point on the concentration scale where inhibition reaches its midpoint. As to `O=C(N1CCCC1)n1oc(=O)c2c(F)cccc21` [Example 4], the melting point was determined as 109 °C. Further, half-maximal inhibition in data set [1] (IC50) required 6 nM.
The like results for `CN(C)C(=O)n1oc(=O)c2ccccc21` [Example 5] were, in that order, 93 °C and 18 nM.
The corresponding values for `Cc1ccc2c(c1)c(=O)on2C(=O)N1CCCC1` [Example 6] are 129 °C and 48 nM.
`O=C(N1CCCC1)n1oc(=O)c2cc(F)c(F)cc21` [Example 7] came in with a melting point of 133 °C. Besides, the IC50 in data set [1] is 99 nM.
`O=C(N1CCCC1)n1oc(=O)c2cc(Cl)ccc21` [Example 8] registered a melting point of 103 °C.
Consider `O=C(N1CCOCC1)n1oc(=O)c2ccc(Cl)cc21` [Example 10], for which the melting point came out at 116 °C.
`O=C(N1CC2CCC2C1)n1oc(=O)c2ccc(Cl)cc21` (centres unmarked) [Example 12] had a melting point of 98 °C.
Same read-out and setting: the figure for `O=C(N1CCOCC1)n1oc(=O)c2c(F)cccc21` [Example 14] is 141 °C; for `O=C(N1CC2CCC2C1)n1oc(=O)c2cc(Cl)ccc21` (centres unmarked) [Example 15] it is 85 °C; for `O=C(N1CCOCC1)n1oc(=O)c2cc(Cl)ccc21` [Example 19] it is 153 °C.
